The source of these data is patent publication US7595300B2, “7-quinolyl ketolide antibacterial agents” (priority 2005, dated 2009).

Structures are written as SMILES. Converted amounts (≈) assume the structure as drawn. Read-outs that look alike come from different tables or passages of the source.

The nature of series [1]: Pharmacokinetics in the mouse, plasma and lung tissue. Type of series: in vivo. As to conditions: oral gavage 10 mg/kg; for Lung AUC / Lung Cmax: mouse lung tissue; for Plasma AUC / Plasma Cmax: mouse plasma. Here is the method: The pharmacokinetics of compounds of formula (VIII) and compounds of formula (II) and (III) were measured in the mouse. Compounds were administered either intravenously (i.v.) at 1 mg/kg, or per oral gavage (p.o.) at 10 mg/kg. Plasma samples were taken and analyzed by LC/MS-MS. For lung tissue pharmacokinetics, lungs were removed and homogenized, followed by analyzis by LC/MS-MS.

For the next series, the system named is anesthetized rats. The series can be described thus: Cardiovascular safety, QT interval in anesthetized rats, i.v. bolus. As to conditions: anesthetized rat, incremental i.v. bolus doses 0.47 to 15 mg/kg. In kind it is in vivo, rat. Here is the method: (§1) Total doses of drug (0.47, 0.94, 1.88, 3.75, 7.5, and 15 mg/kg) or equivalent volumes of vehicle were administered incrementally as an i.v. bolus to groups of 6 anesthetized rats or guinea pigs at 0, 15, 30, 45, 60, and 75 minutes. Hemodynamic parameters including mean arterial pressure (MAP) and heart rate (HR), and ECG parameters (QT and PR intervals and QRS duration) were recorded. For the rat, injection of vehicle gave a 16% increase in QT interval over baseline. For the guinea pig, injection of vehicle gave a 3% increase in QT interval over baseline.

Another series concerns anesthetized guinea pigs. The series can be described thus: Cardiovascular safety, QTc interval in anesthetized guinea pigs, i.v. bolus. Type of series: in vivo, guinea pig. The note with it: for QTc prolongation (% above vehicle): anesthetized guinea pig, incremental i.v. bolus doses 0.47 to 15 mg/kg; for effect on the QTc interval in the anesthetized guinea pig: cumulative doses up to 30 mg/kg, relative to vehicle controls. The method, then: as §1

A further series relates to M. catarrhalis. The series can be described thus: MIC, NCCLS broth microdilution, respiratory pathogens. In kind it is cell-based. The note with it: Moraxella catarrhalis, M. catarrhalis. Here is the method: (§2) Minimum inhibitory concentrations (“MICs”) were determined by the NCCLS broth microdilution procedure for susceptibility testing for bacteria that grow aerobically (National Committee for Clinical Laboratory Standards, 1997. Methods for dilution antimicrobial susceptibility tests for bacteria that grow aerobically, 4th ed. Approved standard. NCCLS Document M7-A4. National Committee for Clinical Laboratory Standards, Villanova, Pa.). Stock solutions were prepared on the day of the test and appropriate aliquots were added to cation adjusted Mueller-Hinton broth (CAMHB, DIFCO) or Haemophilus test media. Two-fold serial dilutions were prepared and added to wells in microtiter plates. Final test concentrations ranged from 8 to 0.004 ug/ml. Broth cultures of bacteria inoculated from growth on overnight plates for all test bacteria except Streptococcus pneumoniae and Haemophilus influenzae were incubated at 35° C. and then adjusted to the Kirby Bauer standard and diluted in CAMHB to achieve a final inoculum concentration of approximately 5×10^5 CFU/ml. Inocula for S. pneumoniae and H. influenzae were prepared by directly suspending colonies from an overnight plate, adjusting the turbidity and diluting as above. S. pneumoniae media was supplemented with 3% lysed horse blood. All plates were incubated in ambient air at 35° C. for 20-24 h for S. pneumoniae and Haemophilus influenzae and 16-20 h for all other bacteria.
On the technique in general: Broth dilution looks for growth in wells or tubes with falling amounts of substance.

For another series, the system named is S. pyogenes. The series is described as above. The note with it: Streptococcus pyogenes; for MIC50: read-out: MIC50; for MIC90: read-out: MIC90. Type of series: cell-based. Here is the method:
as §2

The subject of a further series is Streptococcus pneumoniae. The description is as above. In kind it is cell-based. As to conditions: S. pneumoniae; for MIC50: read-out: MIC50; for MIC90: read-out: MIC90. The method, then:
as §2

The test system of a further series is Haemophilus influenzae. Described as above. In kind it is cell-based. The note with it: H. influenzae. The method, then: as §2
The next series deals with P. granulosum. The series can be described thus: MIC, NCCLS Reference Agar Dilution Method for anaerobic bacteria. In kind it is cell-based, Propionibacterium granulosum. Here is the method:
(§3) Minimum inhibitory concentrations (“MICs”) were determined by the NCCLS Reference Agar Dilution Method (M11-A5, Vol. 21, No. 2) for anaerobic bacteria. A panel of 84 antibiotic-susceptible and resistant strains of Propionibacteria from distinct geographic locations were selected. Following revival from frozen stocks, each strain was purity plated onto Wilkins Chalgren Agar, pH 7.2 (Oxoid, UK), and the appropriate antibiotic resistance/susceptibility phenotype was confirmed by antibiotic disc testing. Each strain was subjected to an agar dilution MIC assay. […] The inocula for each batch of strains were prepared from 7-day old Wilkins Chalgren Agar plate cultures by resuspension of colonies in Wilkins Chalgren Anaerobe broth, pH 7.2 (Oxoid, UK) to an optical density (OD600) of 0.2±0.02. The inoculum (1.0-2.0 μL) for each strain was applied to a Wilkins Chalgren Agar MIC plate in a grid pattern using a Multipoint Inoculator (Denley, UK). All agar plates were incubated at 37° C. for 3 days under anaerobic conditions in AnaeroPack 7 liter rectangular jars (Mitsubishi Gas Chemical Company, Inc., Japan).

A further series has as its system P. acnes. The series is described as above. Type of series: cell-based, Propionibacterium acnes. Here is the method: as §3
Where [2] appears, read: marker RNA 2058, phenotype EryR.
The mark [3] stands for this setting: marker RNA 2059, phenotype EryR.
The mark [4] stands for this setting: marker RNA 2057, phenotype EryR.

As for `CC1CC(N(C)C)C(O)C(O[C@@H]2[C@@H](C)C(=O)[C@@H](C)C(=O)O[C@H](CCF)[C@@]3(C)OC(=O)N[C@@H]3[C@@H](C)C(=O)[C@H](C)C[C@@]2(C)OC/C=C/c2cnc3ccccc3c2)O1` (stereo partly shown) [A], in series [1], the “Lung AUC” value was found to be 2.3 ug/mL-h, the “Lung Cmax” value turned out to be 800 ng/mL, the “Plasma AUC” value is 0.7 ug/mL-h and the “Plasma Cmax” value worked out at 400 ng/mL. In addition, in the series with anesthetized rats, the “QT prolongation (% above vehicle)” value came to 8 % above vehicle. Besides, in the series with anesthetized guinea pigs, the “QTc prolongation (% above vehicle)” value is 10 % above vehicle and the “effect on the QTc interval in the anesthetized guinea pig” value (“effect on the QTc interval” for short) is listed as “pronounced, dose-dependent prolongation of the QT interval”.
Take `CC1CC(N(C)C)C(O)C(O[C@@H]2[C@@H](C)C(=O)[C@](C)(F)C(=O)O[C@H](CCF)[C@@]3(C)OC(=O)N[C@@H]3[C@@H](C)C(=O)[C@H](C)C[C@@]2(C)OC/C=C/c2cnc3ccccc3c2)O1` (stereo partly shown) [B]: in series [1], the “Lung AUC” value stood at 19.0 ug/mL-h, the “Lung Cmax” value is 3300 ng/mL, the “Plasma AUC” value came out at 3.9 ug/mL-h and the “Plasma Cmax” value amounted to 1000 ng/mL. The “QT prolongation (% above vehicle)” value in the series on anesthetized rats amounted to 10 % above vehicle. In the series with anesthetized guinea pigs, the “QTc prolongation (% above vehicle)” value is listed as 3 % above vehicle and the “effect on the QTc interval” value is “smaller yet persistent increase in QTc at the highest dose”.
For the compound `CC1CC(N(C)C)C(O)C(O[C@@H]2[C@@H](C)C(=O)[C@@H](C)C(=O)O[C@H](CCF)[C@@]3(C)OC(=O)N[C@@H]3[C@@H](C)C(=O)[C@H](C)C[C@@]2(C)OC/C=C/c2ccc3ncccc3c2)O1` (stereo partly shown) [C], the “QT prolongation (% above vehicle)” value in the series with anesthetized rats is 20 % above vehicle. In the series with anesthetized guinea pigs, the “QTc prolongation (% above vehicle)” value is 12 % above vehicle and the “effect on the QTc interval” value is on record as “pronounced, dose-dependent prolongation of the QT interval”.
As for `CC1CC(N(C)C)C(O)C(O[C@@H]2[C@@H](C)C(=O)[C@@H](C)C(=O)O[C@H](CCF)[C@@]3(C)OC(=O)N[C@@H]3[C@@H](C)C(=O)[C@H](C)C[C@@]2(C)OC/C=C/c2cnc3cccnc3c2)O1` (stereo partly shown) [D], the “QT prolongation (% above vehicle)” value with anesthetized rats amounted to 28 % above vehicle. In the series on anesthetized guinea pigs, the “QTc prolongation (% above vehicle)” value came out at 14 % above vehicle and the “effect on the QTc interval” value is given as “pronounced, dose-dependent prolongation of the QT interval”.
For `CC1CC(N(C)C)C(O)C(O[C@@H]2[C@@H](C)C(=O)[C@@H](C)C(=O)O[C@H](CCF)[C@@]3(C)OC(=O)N[C@@H]3[C@@H](C)C(=O)[C@H](C)C[C@@]2(C)OC/C=C/c2ccc3nccnc3c2)O1` (stereo partly shown) [G], in series [1], the “Lung AUC” value is reported as 2.2 ug/mL-h, the “Lung Cmax” value was 450 ng/mL, the “Plasma AUC” value worked out at 0.54 ug/mL-h and the “Plasma Cmax” value was found to be 210 ng/mL. In addition, the “QT prolongation (% above vehicle)” value in the series with anesthetized rats is on record as 12 % above vehicle. In addition, in the series on anesthetized guinea pigs, the “QTc prolongation (% above vehicle)” value is listed as 1 % above vehicle and the “effect on the QTc interval” value is reported as “moderate, dose-dependent increase in the QTc interval that slowly returned to baseline”.
For `CC[C@H]1OC(=O)[C@H](C)[C@@H](O[C@H]2C[C@@](C)(OC)[C@@H](O)[C@H](C)O2)[C@H](C)[C@@H](O[C@@H]2O[C@H](C)C[C@H](N(C)C)[C@H]2O)[C@](C)(OC)C[C@@H](C)C(=O)[C@H](C)[C@@H](O)[C@]1(C)O` [clarithromycin, reference compound], the MIC50 with M. catarrhalis (read-out: MIC50) is 0.12 µg/mL (≈ 0.16 µM); with S. pyogenes (genotype ermB) it was above 8 µg/mL; with S. pyogenes (genotype mef), 8 µg/mL (≈ 10.7 µM); in the series with S. pyogenes (genotype sensitive) it was 0.06 µg/mL (≈ 0.0802 µM); in the series with Streptococcus pneumoniae (20 h, genotype ermB + mef), above 8 µg/mL; with Streptococcus pneumoniae (genotype ermB), above 8 µg/mL. Moreover, the MIC50 in the series on Streptococcus pneumoniae (genotype mef) was 4 µg/mL (≈ 5.35 µM); with Streptococcus pneumoniae (genotype sensitive), 0.06 µg/mL (≈ 0.0802 µM); against Haemophilus influenzae (resistant), above 8 µg/mL; in the series on Haemophilus influenzae (sensitive) it was 8 µg/mL (≈ 10.7 µM). Moreover, the MIC90 in the series on M. catarrhalis (read-out: MIC90) was 0.12 µg/mL (≈ 0.16 µM); in the series on S. pyogenes (genotype ermB), above 8 µg/mL; in the series on S. pyogenes (genotype mef), above 8 µg/mL; with S. pyogenes (genotype sensitive) it was 0.06 µg/mL (≈ 0.0802 µM); in the series on Streptococcus pneumoniae (genotype ermB + mef), above 8 µg/mL; in the series with Streptococcus pneumoniae (genotype ermB), above 8 µg/mL. Besides, the MIC90 with Streptococcus pneumoniae (genotype mef) is 8 µg/mL (≈ 10.7 µM); in the series on Streptococcus pneumoniae (genotype sensitive), 0.06 µg/mL (≈ 0.0802 µM); with Haemophilus influenzae (resistant) it was above 8 µg/mL; against Haemophilus influenzae (sensitive), 8 µg/mL (≈ 10.7 µM).
Consider `CCC[C@@H]1C[C@@H](C(=O)N[C@@H]([C@H]2O[C@H](SC)[C@H](O)[C@@H](O)[C@H]2O)[C@H](C)Cl)N(C)C1` [clindamycin], for which the MIC range is 512 µg/mL (≈ 1200 µM) against P. granulosum (setting [2]); 2 to 512 µg/mL with P. granulosum (setting [3]); 512 µg/mL (≈ 1200 µM) in the series on P. granulosum (marker ermX, phenotype EryR); 0.06 to 0.25 µg/mL with P. granulosum (marker none, phenotype none); 0.25 to 256 µg/mL against P. acnes (marker RNA 1058, phenotype TetR); 256 µg/mL (≈ 602 µM) in the series with P. acnes (marker RNA 1058/2058, phenotype TetR, EryR). Also, the MIC range is 8 to 16 µg/mL with P. acnes (marker RNA 1058/2059, phenotype TetR, EryR); 1 µg/mL (≈ 2.35 µM) with P. acnes (setting [4]); 8 to 256 µg/mL in the series with P. acnes (setting [2]); 2 to 256 µg/mL in the series with P. acnes (marker RNA 2058, phenotype EryR, TetR); 8 to 256 µg/mL against P. acnes (setting [3]); 8 to 32 µg/mL in the series on P. acnes (marker RNA 2059, phenotype EryR, TetR). Besides, the MIC range against P. acnes (marker ermX, phenotype EryR) is above 512 µg/mL; with P. acnes (marker none, phenotype none), 0.125 to 1 µg/mL; with P. acnes (marker unknown, phenotype ClindR) it was 4 µg/mL (≈ 9.41 µM).
Regarding `CC[C@H]1OC(=O)[C@H](C)[C@@H](O[C@H]2C[C@@](C)(OC)[C@@H](O)[C@H](C)O2)[C@H](C)[C@@H](O[C@@H]2O[C@H](C)C[C@H](N(C)C)[C@H]2O)[C@](C)(O)C[C@@H](C)C(=O)[C@H](C)[C@@H](O)[C@]1(C)O` [erythromycin], the MIC range in the series with P. granulosum (marker none, phenotype none) was 0.06 to 8 µg/mL; against P. acnes (setting [4]) it was 4 µg/mL (≈ 5.45 µM).
